# Measurements published in a melting point compilation (Tetko et al.; mined from patent text by program, amines drawn as free bases though some values may be those of a salt).
row,melting point [°C],Structure (SMILES)
1,103 to 105,CCCCCCCCCc1cc(C=CC(=O)N2CCN(c3ccc(NC(=N)c4cccs4)cc3)CC2)cc(CCCCCCCCC)c1O
2,50 to 52,CC1(OCc2ccccc2F)COC(C(C)(C)C)OC1 (centres undefined)
3,101 to 103,CCOC(=O)c1cnn2c(-c3ccc(CC)cc3)ccnc12
4,272 to 274,COC(=O)Nc1nc(-c2ccccc2)c(-c2nc3ccccc3c(=O)n2-c2ccc(OC)cc2)s1
5,161 to 162,CC(C)C(=O)c1[nH]c(C(CC2CCCC2)c2ccc(S(C)(=O)=O)cc2)nc1F (centres undefined)
6,300 to 301,N#Cc1c(CCC(=O)O)oc2cc(O)ccc2c1=O
7,216 to 218,Cc1cc2c(-c3cccc(/C=C/c4nnn[nH]4)c3)c(CC(=O)Nc3ccc(F)cc3C(F)(F)F)c(=O)oc2cc1Cl
8,163 to 164,COc1cc(C(N)=O)ccc1OCCCN1CCC(c2noc3cc(F)ccc23)CC1
9,222 to 223,Nc1nccc(-c2c(-c3ccccc3)nn3ccccc23)n1
10,55 to 58,O=S(=O)(CCCCCl)c1ccccc1
11,264,Nc1ccc(-c2noc(-c3cnn4c(C(F)(F)F)cc(-c5cccc(C(F)(F)F)c5)nc34)n2)cn1
12,111 to 113,CCCCn1c(=O)c2c(nc(C)n2S(=O)(=O)c2ccc(C)cc2)n(CCCC)c1=O
13,274 to 275,O=c1oc2c3c(n(-c4ccccc4)c(=O)c2c(O)c1Sc1ccccc1)-c1ccccc1C3
14,85,CN1CCC(OC2c3ccccc3CCn3c2nc(I)c3C(N)=O)CC1 (centres undefined)
15,221 to 222,Cc1nc(-c2ccc(Br)cc2)n(-c2ccc(S(N)(=O)=O)cn2)n1
16,177 to 178,Nc1ncc(-c2cccc(OCc3ccccc3)c2)cc1C(=O)NC1CC1
17,128 to 130,CCc1ccccc1NC(=O)C(C#N)=CN(C)C
18,53 to 54,Cc1c(C(F)(F)F)noc1N
19,213,O=C1CCC(c2ccccc2)(c2ccccc2)[C@@H]2CN(C(=O)Cc3ccc(Cl)cc3)C[C@H]12 (racemic)
20,123 to 124,CC(C)OCCN1C(=O)N2CCOC2(c2ccccc2)c2cc([N+](=O)[O-])ccc21 (centres undefined)
21,178 to 180,CC(=O)c1ccc(-c2ccnc(Nc3ccc4c(c3)OCCO4)c2)cc1
22,227 to 230,CCCNC(=O)c1ccc(CCN2CC=C(c3c[nH]c(-c4ccc(F)cc4)c3-c3ccncc3)CC2)cc1
23,117 to 120,N#Cc1cc(N(CC(=O)O)C(=O)c2cccn2-c2ccc(F)cc2)ccc1N1CCCCC1
24,144,COc1ccccc1CNc1ccc2cc(Nc3nc(C(F)(F)F)co3)ccc2n1

row,melting point [°C],Structure (SMILES)
1,109 to 110,CN(C)c1cc(-n2nc(N(C)C)n(C)c2=O)c(F)cc1C#N
2,101 to 102,CCCCOc1ccc(CNC(=O)c2ccccc2[N+](=O)[O-])cc1
3,191 to 193,C#CCOc1ccc(/C=C/C(=O)Nc2ccccc2C(=O)O)cc1OC
4,133 to 136,C=CS(=O)(=O)Nc1cccc(Nc2nc(N[C@H](C)C(C)(C)C)c3nc[nH]c3n2)c1
5,106 to 108,O=Cc1ccc(OC2CCN(C(=O)OCC3c4ccccc4-c4ccccc43)CC2)cc1
6,153 to 155,CCOC(=O)CN1CCN(c2cccc(C3=NC(C)(C)Cc4cc(OC)c5c(c43)CC(C)(C)O5)c2)S1(=O)=O
7,124 to 133,CCOC(=O)c1c(N2CCN(C(=O)c3cccs3)CC2)c2cc(F)cnc2[nH]c1=O
8,141 to 143,COc1ccc(NC2(C(N)=O)CCOCC2)cc1
9,89 to 90,Clc1ccc(N=c2ssnc2Cl)cc1Cl
10,61 to 64,COc1cc(C=O)ccc1OCCBr
11,150 to 157,Cc1noc(C)c1S(=O)(=O)Nc1ccc2c(c1)S(=O)(=O)C=C(c1c(O)c3cc(F)ccc3n(CCC3CC3)c1=O)N2
12,81 to 84,COc1ccc(-c2cc(C)c(N)c(C=O)c2)cn1
13,259 to 261,CC(=O)Oc1c(C)c(C)c2c(c1C)CC(C)(C(=O)Nc1cnc3c(C)cc(C)cc3c1-c1ccccc1Cl)O2 (centres undefined)
14,169 to 171,O=C(CC1CCOCC1)Oc1cc(=O)n(-c2ccccc2)c2ncccc12
15,232 to 234,Cc1cc(O)nn1C(=O)Nc1ccccc1
16,102 to 104,c1ccc(C(OC2CCN(CCCCNc3ccc4ncnn4n3)CC2)c2ccccc2)cc1
17,> 300,Cc1ccccc1NC(=O)Nn1c(=O)c(=O)[nH]c2ccccc21
18,197 to 199,Cc1cccc(C(=O)NCc2cccc3c2C(=O)N(C2CCC(=O)NC2=O)C3=O)n1 (centres undefined)
19,61 to 64,CC1(Cc2ccc(O)cc2)OCCO1
20,239 to 241,CN(C)C(=O)[C@@H]1C[C@H]1C(=O)c1c[nH]c2ccc(F)cc12 (relative stereo)
21,148,O=C(Nc1cccc2[nH]ccc12)c1ccccc1OCCCNC1CCCCC1
22,58 to 60,CCOC(=O)C1CCc2cc(OC)ccc2C1=O (centres undefined)
23,> 200,CCn1c(NC=O)nc(N2CCc3ccccc3CC2)c(C#N)c1=O
24,208 to 209,O=C(CC1=C(n2nc(-c3c(-c4ccccc4)nn4ccccc34)ccc2=O)CCCC1)N1CCNCC1

row,melting point [°C],Structure (SMILES)
1,111 to 114,COc1cc(OCc2cccc([N+](=O)[O-])c2)ccc1C(C)=O
2,166 to 167,COc1ccc(N2CCN(c3c(C)c(C)c4c(c3C)C(=CCc3ccccc3)C(C)(C)O4)CC2)cc1
3,177,CCOC(=O)C1=C(COCCNc2nc(C(C)=O)c[nH]2)NC(C)=C(C(=O)OC)C1c1cccc(Cl)c1Cl (centres undefined)
4,276 to 278,Cc1cc(C)c2c(n1)[nH]c(=O)c1ccccc12
5,173 to 174,CCOC(=O)NNc1ccc(-c2ccc(F)cc2)nn1
6,195 to 197,COc1cc(Nc2c(C#N)cnc3cc4ccccc4cc23)c(C)cc1Cl
7,131 to 132,O=C(OCc1ccccc1)N1CCC2(CC1)CC(=O)N(O)C2=O
8,121,Cc1ccnc(-c2cccc(Oc3ccccc3C)n2)n1
9,171,CCCOc1ccc(/C=C(\C)C(=O)O)cc1
10,127 to 130,O=C(O)COc1c(-c2cccc(C(F)(F)F)c2)cc(C(=O)NCCCCCCOCc2ccc(OCc3ccccc3)cc2)cc1-c1cccc(C(F)(F)F)c1
11,116 to 117,O=C(O)Cc1ccc2[nH]cc(CCNC(=O)OCc3ccccc3)c2c1
12,117 to 118,CC(C)[C@H]1C[C@@H]([C@H](CC2CCCCC2)NC(=O)OCc2ccccc2)OC1=O
13,265,Fc1ccc(-c2cc(C(F)(F)F)n3ncc(-c4ccncc4)c3n2)cc1Cl
14,92 to 94,CCN(CC)CCNC(=O)c1cc(Cl)c(N)cc1OCCS(=O)CC (centres undefined)
15,228 to 230,CC(=Cc1cc([N+](=O)[O-])ccc1Cl)C(=O)O
16,147 to 148,COc1cc(OC)nc(Oc2cccc(Cl)c2NS(C)(=O)=O)n1
17,123 to 125,O=S=c1cc(-c2ccc(Cl)cc2)ss1
18,132,CCCCn1cccc1C(=O)N(C)C
19,72,COCOc1cc(C(C)(C)C)ccc1C(=O)O
20,215 to 217,CCn1c(=O)ccc2cnc(Nc3ccc(F)cc3)nc21
21,76,COc1c(Cl)c(C=O)c(Cl)c(OC)c1OC
22,200 to 202,CC1(C)Oc2cc(Br)sc2C(N2CCCCC2=O)C1O (centres undefined)
23,226 to 227,COc1ccc(OC)c2[nH]c(-c3ccccc3)nc12
24,143 to 145,CCN1c2ncc(CCc3cccc(I)c3)cc2C(=O)N(C)c2ccc(Cl)nc21

row,melting point [°C],Structure (SMILES)
1,175 to 177,COc1ccc(-n2nc(Sc3cc(C)cc(C)c3)c(C)c(C#N)c2=O)cc1
2,237 to 238,Cc1cccc(-c2nc3ccc(Cl)nn3c2-c2ccnc(N)n2)c1
3,230 to 233,NC(=O)CNS(=O)(=O)c1ccc(CCN2CC=C(c3c[nH]cc3-c3ccncc3)CC2c2ccc(F)cc2)cc1 (centres undefined)
4,105 to 106,CCCCn1c(=O)n(C)c(=O)c2nn(S(=O)(=O)CCCCl)cc21
5,197 to 200,CCc1c(OC)nc2nc(-c3noc(C(F)(F)F)n3)cn2c1C
6,278 to 282,O=C(O)CN1C(=O)C(=Cc2c[nH]c3ccc(Cl)cc23)SC1=S
7,281 to 283,CN1CCN(c2c(F)c(N)c3c(=O)c(C(=O)O)cn(C4CC4)c3c2F)CCC1=O
8,120 to 123,OCC1OC(n2cnc3c(NCC(c4ccccc4)c4ccccc4)nc(Cl)nc32)C(O)C1O (centres undefined)
9,95 to 96,OC(CNCCN(c1ccccc1)c1ccccc1)COc1ccccc1 (centres undefined)
10,49 to 50,CN(C)c1c(Cl)nc(-c2ccccc2)nc1Cl
11,79,O=C1c2ccccc2C(O)N1CCCBr (centres undefined)
12,83,N#Cc1ccc(Cc2c[nH]nn2)cc1
13,173 to 176,CC(C)(C)CN1C(=O)[C@@H](CC=O)O[C@H](c2ccccc2Cl)c2cc(Cl)ccc21 (relative stereo)
14,121 to 125,CCCC(=O)NCCc1ccc(S(=O)(=O)N2CCN(C3CCCCC3)C2=N)s1
15,127,COC(=O)c1ccc(Cc2cc3cc(C(F)(F)F)ccc3[nH]2)cc1
16,238,CCCN1Cc2cc(Oc3cccc(NCc4c(C)cc(C)cc4C)c3)ccc2N=C1N
17,58 to 59,N[C@@H](CC1CCCCC1)[C@@H](O)[C@@H]1CCCS1
18,237 to 239,COc1cc(C(=O)O)ccc1Cc1cn(C)c2ccc(C(=O)NCC3CCCC3)cc12
19,220 to 224,CCNC1CN(c2cc3c(cc2F)c(=O)c(C(=O)O)cn3C2CC2)C1
20,51 to 53,Clc1nccnc1NCCOc1ccccc1
21,111 to 112,COc1ccc(C2(C#N)CCC(=O)CC2)cc1OC
22,186 to 187,CC(=O)OC[C@H](Cc1ccccc1)NC(=O)[C@H](Cc1ccccc1)NC(=O)c1ccccc1

row,Structure (SMILES),melting point [°C]
1,COP1(=O)C=Cc2ccccc21 (centres undefined),89 to 90
2,Oc1ccc2nc(NC3=NCCN3)[nH]c2c1,254 to 258
3,Cc1cc2[nH]ncc2cc1NC1=NCCS1,218 to 221
4,c1nc2c(cc1NC1=NCCN1)COCC2,201 to 202
5,Brc1ccc2c(C3CCNCC3)n[nH]c2c1,163 to 165
